Patent US20070259866A1, “Method of Adenovirus, HIV and HPV Prophylaxis” (priority 1999, published 2007)
“And” between values parts separate entries of the source, which are not always exact repeats. Equal entries are not always repeated.

Legend:
adenovirus = test: Inhibition of adenovirus infection in 293T cells in vitro; type: cell-based
Text: Compound 96 inhibited adenovirus infection 100% in 293T cells in vitro.

[1] = tested on: NL-HX-ADA (macrophage-tropic isolate) Virus; test: Control infections: untreated NL-HX-ADA virus added to PBMC cultures containing the final dilution of the drug; type: cell-based, Human Immunodeficiency Virus (HIV); conditions: for Control culture: # infected cells/area (~500 cells) / Control culture: Average # infected cells/area: untreated virus; for Control culture: # infected cells/area (~500 cells): single area counts
Experimental: After the 1 hr treatment period, the virus-drug solutions were diluted 1:1,000 with complete medium, and then mixed with an equal volume of Peripheral Blood Mononucleocyte (PBMC) cells, for a final dilution of virus and drug of 1:4,000.
The infected cultures were then incubated without any washing or other changes in media for 4 days (for the M-tropic NL-HX-ADA type) and 8 days (for the T-tropic NL-HX type). The cultures were then assayed for infection using standard fluorescent focus assays to quantitate infected cells.
Control infections were performed by adding untreated viruses at a p24 concentration of 1 ng/ml into cultures containing the final dilution of the drug. This controlled for any residual effect the diluted drug may have on the health of the PBMC culture and their ability to replicate virus.

[2] = tested on: human papillomavirus type 11 (HPV-11); test: HPV-11 pre-treated with CTC 96, subcutaneous human foreskin xenograft infection model in SCID mouse, graft size; type: in vivo; conditions: for cGMD of the Grafts, Lower Quartile / cGMD of the Grafts, Median / cGMD of the Grafts, Upper Quartile: 12 weeks; for Composite Geometric Mean Diameters (cGMD) of the Grafts, Means: grafts at 12 weeks, replicates 1, 3, 4
Experimental: The activity of CTC 96 on human papillomavirus type 11 (HPV-11) prior to infection was tested by using a subcutaneous human xenograft infection model in the severe combined immunodeficiency (SCID) mouse.
Three different concentrations, 1%, 0.2% and 0.05%, of CTC 96 and a control (normal saline) were evaluated in HPV-11-infected internal human xenograft in the SCID mouse. The viral suspension was exposed for one hour with one of the four CTC 96 concentrations before being used to infect the human foreskin grafts.
Each experiment was done in quadruplicate. Twelve mice were used in each replicate. For each replicate, the four treatment groups were made of 3 mice (3 animals per cage). Each mouse received under the skin of each flank one HPV-11-infected foreskin fragment. Two foreskin donors were used, one for the fragments implanted under the left flank and a different one for the fragments implanted under the right flank. The HPV-11-infected grafts were left to grow for 12 weeks, while the mice weights were monitored every other week. At the end of the 12 weeks, the animals were sacrificed and the grafts recovered, measured and processed.
CTC 96 was applied to the virus directly, prior to infection. Just prior to exposure of the virus to CTC 96, 750 μl of normal saline was added to a vial containing 15 mg of dry CTC 96. The resulting solution contained 2% of CTC 96.
CTC 96 was incubated for 1 hour at 37° C. with the viral suspension, which was then used to infect the human foreskin fragments.
Neonatal foreskins from routine circumcision were collected at the nursery of a local hospital and placed in transport medium (Minimum Essential Medium, penicillin 25,000 U/ml, streptomycin 25 mg/mL), In a Petri dish, the foreskin's occluded side was removed using a scalpel, leaving the exposed skin prepared as a split-thickness graft. The foreskin was punched out using a 3 mm biopsy punch. One fragment was fixed in buffered formalin to serve as control in the histologic and immunocytochemical analyses. 3-4 fragments were snap frozen in liquid nitrogen, to serve as controls in the RT-PCR assay. The other fragments were split equally into four groups. Each group of fragments was dispensed in one of the vials containing 500 μl of pretreated viral suspension.
Two foreskin donors collected within 24 hours of the procedure, were used in each replicate experiment. Each viral suspension received the foreskin fragments of both foreskin donors. To recognize the foreskin donors, in each experiment we used […]. The fragments were vortexed in the suspension and left to incubate for 60 minutes at 37° C. before being grafted.
For the grafting, the mouse was anesthetized in an anesthesia chamber with 5% halothane to 2 liters of oxygen, until no corneal or pedal reflexes could be elicited. The animal was removed from the chamber, and the halothane adjusted to 2-2.5% to 1 liter of oxygen for continued administration via nose cone for the duration of the surgical procedure. The animals ears were notched for identification. The back skin was prepped with a povidone iodine swab. A 1 cm vertical incision of the skin was made on the flank with scissors. Through that incision, the subcutis was bluntly dissected with closed scissors caudad to the wound. One foreskin fragment from the […] donor was inserted in the caudad pocket, epidermis facing the mouse's skin, mucosal side in contact with the musculo-fascial plane (panniculus camosus) of the mouse. The incision was closed with two metal clips. The other side was grafted in the same manner with one foreskin fragment from the […] donor.
The animals were otherwise sacrificed by cervical dislocation 12 weeks after graft implantation. Length, width, and height of the graft were measured and recorded. The graft were then removed and split in at least two parts. One part was fixed in buffered formalin. […]

For CC1=CC(C)=[N+]2CC[N+]3=C(C)C=C(C)[O][Co-4]23([n+]2cc[nH]c2C)([n+]2cc[nH]c2C)[O]1.[Br-] [Compound 96], the inhibited adenovirus infection (adenovirus) was 100%, the “toxicity or inhibition in control cultures receiving the diluted drugs” value ([1]; even at the highest concentration tested (5 μg/ml)) was “No toxicity or inhibition” and the “Control culture: # infected cells/area (~500 cells)” value ([1]; culture with final dilution of the 0.625 mg/ml (residual 0.3 μg/ml)) was 17 cells/area and 16 cells/area and 18 cells/area. For the same compound, the “Control culture: # infected cells/area (~500 cells)” value ([1]; culture with final dilution of the 1.25 mg/ml (residual 0.6 μg/ml)) was 16 cells/area and 15 cells/area and 17 cells/area and 18 cells/area, the “Control culture: # infected cells/area (~500 cells)” value ([1]; culture with final dilution of the 2.5 mg/ml column (residual 1.25 μg/ml)) was 17 cells/area and 18 cells/area and 15 cells/area and 16 cells/area and the “Control culture: # infected cells/area (~500 cells)” value ([1]; culture with final dilution of the 5 mg/ml column (residual 2.5 μg/ml)) was 16 cells/area and 17 cells/area and 15 cells/area and 18 cells/area. The “Control culture: # infected cells/area (~500 cells)” value ([1]; culture with final dilution of the 10 mg/ml column (residual 5 μg/ml)) was 15 cells/area and 16 cells/area and 17 cells/area, the “Control culture: Average # infected cells/area” value ([1]; final dilution of the 0.625 mg/ml column (residual 0.3 μg/ml)) was 16.50 cells/area and the “Control culture: Average # infected cells/area” value ([1]; final dilution of the 1.25 mg/ml column (residual 0.6 μg/ml)) was 16.38 cells/area. The “Control culture: Average # infected cells/area” value ([1]; final dilution of the 2.5 mg/ml column (residual 1.25 μg/ml)) was 16.50 cells/area, the “Control culture: Average # infected cells/area” value ([1]; final dilution of the 5 mg/ml column (residual 2.5 μg/ml)) was 16.25 cells/area and the “Control culture: Average # infected cells/area” value ([1]; final dilution of the 10 mg/ml column (residual 5 μg/ml)) was 16.00 cells/area. For the same compound, the “effect on graft size” value ([2]; 0.05% concentration) was “effective”, the “cGMD of the Grafts, Lower Quartile” value ([2]; CTC 96 0.05%) was 1.94 mm and the “cGMD of the Grafts, Median” value ([2]; CTC 96 0.05%) was 2.01 mm. The “cGMD of the Grafts, Upper Quartile” value ([2]; CTC 96 0.05%) was 2.13 mm, the “cGMD of the Grafts, Lower Quartile” value ([2]; CTC 96 0.2%) was 1.70 mm and the “cGMD of the Grafts, Median” value ([2]; CTC 96 0.2%) was 1.88 mm. The “cGMD of the Grafts, Upper Quartile” value ([2]; CTC 96 0.2%) was 2.05 mm, the “cGMD of the Grafts, Lower Quartile” value ([2]; CTC 96 1%) was 1.82 mm and the “cGMD of the Grafts, Median” value ([2]; CTC 96 1%) was 1.94 mm. For the same compound, the “cGMD of the Grafts, Upper Quartile” value ([2]; CTC 96 1%) was 2.08 mm, the “HPV-11-induced growth of the grafts” value ([2]; regardless of the concentration used) was “limited the HPV-11-inducted growth of the grafts” and the “Composite Geometric Mean Diameters (cGMD) of the Grafts, Means” value (“Composite Geometric Mean Diameters” below) ([2]; virus exposed 1 hour to CTC 96 0.05%) was 2.02 mm. The “Composite Geometric Mean Diameters” value ([2]; virus exposed 1 hour to CTC 96 0.2%) was 1.86 mm and the “Composite Geometric Mean Diameters” value ([2]; virus exposed 1 hour to CTC 96 1%) was 1.95 mm.
